Data set [1] can be described thus: Comparative pharmacokinetics of oxycodone in the cynomolgus monkey after oral administration.
Data set [2] in a line: Bioavailability of oxycodone, codeine and dihydrocodeine from their succinyl valine ester prodrugs in the dog (oral gavage, two-way crossover). The conditions noted are these: dogs; for T>50%Cmax of oxycodone: 1 mg free base equivalents oxycodone/kg. The protocol:
The characteristics of the test animals are set out in Table 10, below.
Blood samples were taken at various times after administration and submitted to analysis for the parent drug and pro-drug using a validated LC-MS-MS assay. Pharmacokinetic parameters derived from the plasma analytical data were determined using Win Nonlin.

Data set [3] in a line: Systemic availability of oxycodone after intranasal insufflation to dogs. To be noted: nominal […] equivalents; for half-life: t½ of intact prodrug.
A short description of data set [4]: Comparative pharmacokinetics of oxycodone after oral administration to female Sprague Dawley rats. To be noted: 10 mg oxycodone free base equivalents/kg; for T>50%Cmax of oxycodone: oral.
The nature of data set [5]: In vitro stability of dicarboxylate amino acid ester prodrugs in simulated gastric and intestinal juice, distilled water and pH 10 buffer (HPLC).
In data set [6] the test system is guinea pig small intestine myenteric plexus longitudinal muscle. Nature of the data set: Ex vivo smooth muscle contractility, electrical field stimulation response of isolated guinea pig small intestine. The conditions noted are these: for EC50: Cavia porcellus, isolated guinea pig ileum, concentration as free base of opioid, read-out: EC50, opioid effect on electrical field stimulation response.

Data set [7] is described as follows: Comparative oral bioavailability of oxycodone from various dicarboxylate bridged amino acid prodrugs in dogs (nine-way crossover). Type of data set: in vivo, dog. The conditions noted are these: 1 mg/kg oxycodone free base, mean (±sd).
The next data set concerns gut motility in the rat. Nature of the data set: Charcoal propulsion test of GI motility in the rat. The data set is classed as in vivo. To be noted: oral; for delay of the passage of the charcoal meal (gut motility): 30 mg/kg or equimolar dose.
Data set [8] in a line: Plasma pharmacokinetics of meptazinol dicarboxylate linked prodrugs after oral gavage to dogs. Type of data set: in vivo, dog. To be noted: dog, plasma, 1 mg meptazinol base equivalents/kg body weight, oral, read-out: expected Cmax of meptazinol after giving the drug itself.
For data set [9] the following is noted: in vivo; cited from earlier work.
The conditions of data set [10]: cited from earlier work.
For data set [11] the following is noted: in vivo; cited from earlier work. This is another data set of the same source.
The conditions of data set [12]: rat model; cited from earlier work.
Setting [13] is: male cynomolgus monkeys, oral prodrug, 1 mg oxycodone free base equivalents/kg, individual monkeys 1-5.
Where [14] appears, read: oral prodrug, individual rats, listed as Oxycodone succinyl valine enol ester.

Where “and” joins values, the source holds several entries; their conditions need not be identical. Identical values can stand only once. Marks after values point to notes of the source that are not given here.

The values below come from patent publication US20100286186A1, “NOVEL DICARBOXYLIC ACID LINKED AMINO ACID AND PEPTIDE PRODRUGS OF OPIOIDS AND USES THEREOF” (Shire LLC, priority 2009, published 2010).

`COc1ccc2c3c1O[C@H]1C(OC(=O)CCC(=O)NC(C(=O)O)C(C)C)=CC[C@@]4(O)[C@@H](C2)N(C)CC[C@]314` (stereo in doubt) [oxycodone-[succinyl-(S)-valine] enol ester]: the “AUCt of intact prodrug” value in data set [1] (setting [13]) is 0.76 ng·h/mL and 1.70 ng·h/mL and 0.39 ng·h/mL and 0.32 ng·h/mL and 0.71 ng·h/mL; in [4] (setting [14]), 3.53 ng · h/mL and 2.55 ng · h/mL and BLQ (2×) and 0.131 ng · h/mL. Besides, the “Cmax of intact prodrug” value in data set [1] (setting [13]) is 1.29 ng/mL and 2.92 ng/mL and 0.57 ng/mL and 0.42 ng/mL and 1.02 ng/mL; in [4] (setting [14]), 6.77 ng/mL and 2.00 ng/mL and BLQ and 1.93 ng/mL and 1.05 ng/mL. In addition, the “T>50%Cmax of oxycodone” value was 1.54 h and 1.63 h and 3.45 h and 4.43 h and 1.38 h in data set [1] (male cynomolgus monkeys, oral, 1 mg oxycodone free base equivalents/kg, individual monkeys 1-5); 2.49 h in [1] (male cynomolgus monkeys, oral, 1 mg oxycodone free base equivalents/kg, mean (n=5)); 2.5 h in data set [1] (male cynomolgus monkeys, oral, 1 mg oxycodone free base equivalents/kg, mean (n=5), listed as oxycodone succinyl valine ester); 1.5 h (3×) and 2.5 h (2×) in data set [2] (oral gavage, individual dogs 1-5); 1.5^a h in data set [2] (oral gavage, median (n=5)); 11.8 h (2×) and 3.5 h and 3.75 h and 2 h in [4] (individual rats, listed as Oxycodone succinyl valine enol ester). Further, the “T>50%Cmax of oxycodone” value in data set [4] (median, listed as Oxycodone succinyl valine enol ester) was 3.75^a h; in data set [4] (median, listed as oxycodone succinyl valine ester), 3.75 h. In addition, the AUC(0-t) worked out at 0.78 ng·h/mL in [1] (male, cynomolgus monkey, plasma, po, 1 mg oxycodone base equivalents/kg, AUCt of intact prodrug, male cynomolgus monkeys, oral prodrug, 1 mg oxycodone free base equivalents/kg, mean (n=5)); 5.93 ng·h/mL in [3] (male, beagle, dog, plasma, other: intranasal insufflation, 0.25 mg oxycodone free base equivalents/kg, AUCt of intact prodrug, mean); 1.24 ng·h/mL in data set [4] (female, Sprague Dawley, rat, plasma, po, AUCt of intact prodrug, oral prodrug, mean (BLQ taken as zero)). The Cmax in data set [1] (male, cynomolgus monkey, plasma, po, 1 mg oxycodone base equivalents/kg, Cmax of intact prodrug, male cynomolgus monkeys, oral prodrug, 1 mg oxycodone free base equivalents/kg, mean (n=5)) is 1.24 ng/mL; in [3] (male, beagle, dog, plasma, other: intranasal insufflation, 0.25 mg oxycodone free base equivalents/kg, Cmax of intact prodrug, mean), 4.87 ng/mL; in data set [4] (female, Sprague Dawley, rat, plasma, po, Cmax of intact prodrug, oral prodrug, mean (BLQ taken as zero)), 2.35 ng/mL. Besides, in [1] (monkeys, oral prodrug), the “prodrug Cmax as % of Cmax of the active drug” value was roughly 7%. Further, the “AUC of oxycodone” value in [1] (monkeys, oral, 1 mg oxycodone base equivalents/kg) was 42.3 ng/h/mL. Also, the “period for which plasma concentrations were maintained above 50% of Cmax, compared to the drug itself” value in data set [2] (oral, oxycodone in plasma) is listed as “three times longer”. In addition, the AUC in data set [3] (male, beagle, dog, plasma, other: intranasal insufflation, 0.25 mg oxycodone free base equivalents/kg, AUC of intact prodrug, mean) amounted to 10.3 ng·h/mL. For the same compound, the Tmax stood at 15 min in data set [3] (male, beagle, dog, plasma, other: intranasal insufflation, 0.25 mg oxycodone free base equivalents/kg, Tmax of intact prodrug, median) and 22.5 min in [4] (female, Sprague Dawley, rat, plasma, po, Tmax of intact prodrug, oral prodrug, median). The half-life is 45 min in data set [3] (male, beagle, dog, plasma, other: intranasal insufflation, 0.25 mg oxycodone free base equivalents/kg, calculated as ln2/mean k) and 51 min in data set [3] (male, beagle, dog, plasma, other: intranasal insufflation, 0.25 mg oxycodone free base equivalents/kg, individual dogs). For the same compound, the figures for the “Tmax of intact prodrug” value in [3] (individual dogs) and in data set [4] (setting [14]) were 60 min and 90 min, respectively. Further, in data set [5] (pH 1.1, 2 h, 37° C.), the “Simulated gastric fluid (pH 1.1): % remaining after 2 h/37° C.” value was 98%. For the same compound, in [5] (pH 5.9, 2 h, 20° C.), the “Distilled water (pH 5.9): % remaining after 2 h/20° C.” value is 100%. The “Simulated intestinal fluid (pH 6.8): % remaining after 2 h/37° C.” value in data set [5] (pH 6.8, 2 h, 37° C.) is recorded as 85%. Besides, in data set [5] (pH 10.0, 2 h, 20° C.), the “pH 10.0 buffer: % remaining after 2 h/20° C.” value is listed as 64%. Moreover, the EC50 in data set [6] amounted to 2 µM. In addition, the “reduction in the opioid effects compared to oxycodone itself” value in data set [6] (guinea pig ileal smooth muscle) was 10 fold. Further, in data set [7], the “T50% Cmax of oxycodone” value is 1.6 (±0.3) h. For the same compound, the “% change from vehicle-treated animals, small intestine” value in the data set with gut motility in the rat (10 mg/kg) is −12.1%; in the data set with gut motility in the rat (30 mg/kg) it was −15.8%; with gut motility in the rat (100 mg/kg), −35.4%. The “% change from vehicle-treated animals, total gut length” value is −11.2% in the data set on gut motility in the rat (10 mg/kg), −15.6% in the data set with gut motility in the rat (30 mg/kg) and −35.0% with gut motility in the rat (100 mg/kg). The “delay of the passage of the charcoal meal (gut motility)” value with gut motility in the rat was roughly 16%.
As to `CCC1(c2cccc(O)c2)CCCCN(C)C1` (centres unmarked) [Meptazinol, meptazinol, reference compound], the peak concentration (Cmax) in data set [8] was in the range of 2 to 5 ng/mL. Besides, the oral bioavailability in data set [9] was less than 10%.
Consider `COc1ccc2c3c1O[C@H]1[C@@H](OC(=O)CCC(=O)N[C@H](C(=O)O)C(C)C)CCC4[C@@H](C2)N(C)CC[C@@]341` (stereo partly drawn) [dihydrocodeine-[succinyl-(S)-valine]ester], for which the “T>50%Cmax of dihydrocodeine” value in [2] (oral gavage, 1 mg free base equivalents dihydrocodeine/kg, median (n=5)) turned out to be 2 h. Also, the EC50 in data set [6] amounted to 20 µM. The “delay of the passage of the charcoal meal (gut motility)” value in the data set on gut motility in the rat is given as 8.5%.
On to `CCC(=O)Oc1ccc2c3c1O[C@H]1[C@@H](O)C=C[C@H]4[C@@H](C2)N(C)CC[C@@]341` [morphine-3-propionate], for which, in data set [10], the “half-life of hydrolysis in human plasma” value is on record as “less than 5 minutes”.
As for `CC(C)[C@H](N)C(=O)OCCOCn1cnc2c(=O)nc(N)[nH]c21` [valine ester of acyclovir], in data set [11], the “chemical degradation in the GI tract before absorption” value is reported as 15-25%.
“(Z)-3-[2-(propionyloxy)phenyl]-2-propanoic ester”: in data set [12], the “bioavailability over meptazinol itself” value is recorded as “significant increase in bioavailability”.

In general, AUC(0-t) refers to exposure summed from dosing to a finite time, without extrapolation to infinity. A word on the Cmax: it is the peak of the concentration-time curve. For orientation: AUC means concentration integrated over time. What is called Tmax is the time at which the peak concentration occurs. Usually half-life stands for the time needed for the level to fall by half in the phase considered. What is called EC50 is the concentration that produces a half-maximal response.
